Assay results reported in the NIST ThermoML archive (doi:10.1021/acs.jced.7b00572).
± gives the expanded uncertainty stated by the source.

Settings: Liquid, Vibrating wire viscometry

## O=C(C(F)(F)C(F)(F)F)C(F)(C(F)(F)F)C(F)(F)F [dodecafluoro-2-methylpentan-3-one]
243.15 K, 10000 kPa
  viscosity: 1.923 ± 0.04 mPa·s
243.15 K, 20000 kPa
  viscosity: 2.329 ± 0.048 mPa·s
243.15 K, 40000 kPa
  viscosity: 3.247 ± 0.067 mPa·s
243.16 K, 100 kPa
  viscosity: 1.597 ± 0.034 mPa·s
243.16 K, 1000 kPa
  viscosity: 1.628 ± 0.034 mPa·s
243.16 K, 5000 kPa
  viscosity: 1.749 ± 0.037 mPa·s
243.16 K, 30000 kPa
  viscosity: 2.761 ± 0.057 mPa·s
253.15 K, 100 kPa
  viscosity: 1.307 ± 0.027 mPa·s
253.15 K, 1000 kPa
  viscosity: 1.339 ± 0.029 mPa·s
253.15 K, 5000 kPa
  viscosity: 1.451 ± 0.03 mPa·s
253.15 K, 10000 kPa
  viscosity: 1.58 ± 0.033 mPa·s
253.15 K, 20000 kPa
  viscosity: 1.913 ± 0.04 mPa·s
253.15 K, 30000 kPa
  viscosity: 2.26 ± 0.047 mPa·s
253.16 K, 40000 kPa
  viscosity: 2.659 ± 0.055 mPa·s
263.14 K, 5000 kPa
  viscosity: 1.197 ± 0.025 mPa·s
263.14 K, 10000 kPa
  viscosity: 1.327 ± 0.028 mPa·s
263.14 K, 20000 kPa
  viscosity: 1.573 ± 0.033 mPa·s
263.14 K, 30000 kPa
  viscosity: 1.86 ± 0.039 mPa·s
263.14 K, 40000 kPa
  viscosity: 2.169 ± 0.045 mPa·s
263.15 K, 100 kPa
  viscosity: 1.082 ± 0.023 mPa·s
263.15 K, 1000 kPa
  viscosity: 1.107 ± 0.024 mPa·s
273.14 K, 100 kPa
  viscosity: 0.9209 ± 0.02 mPa·s
273.14 K, 20000 kPa
  viscosity: 1.332 ± 0.028 mPa·s
273.15 K, 1000 kPa
  viscosity: 0.9395 ± 0.02 mPa·s
273.15 K, 5000 kPa
  viscosity: 1.014 ± 0.022 mPa·s
273.15 K, 10000 kPa
  viscosity: 1.117 ± 0.024 mPa·s
273.15 K, 30000 kPa
  viscosity: 1.566 ± 0.033 mPa·s
273.15 K, 40000 kPa
  viscosity: 1.818 ± 0.038 mPa·s
283.15 K, 100 kPa
  viscosity: 0.7823 ± 0.017 mPa·s
283.15 K, 1000 kPa
  viscosity: 0.7955 ± 0.017 mPa·s
283.15 K, 5000 kPa
  viscosity: 0.8641 ± 0.019 mPa·s
283.15 K, 10000 kPa
  viscosity: 0.9569 ± 0.021 mPa·s
283.15 K, 20000 kPa
  viscosity: 1.142 ± 0.024 mPa·s
283.15 K, 30000 kPa
  viscosity: 1.345 ± 0.028 mPa·s
283.15 K, 40000 kPa
  viscosity: 1.567 ± 0.033 mPa·s
293.14 K, 10000 kPa
  viscosity: 0.8262 ± 0.018 mPa·s
293.15 K, 100 kPa
  viscosity: 0.6693 ± 0.015 mPa·s
293.15 K, 1000 kPa
  viscosity: 0.6851 ± 0.015 mPa·s
293.15 K, 5000 kPa
  viscosity: 0.7466 ± 0.016 mPa·s
293.15 K, 40000 kPa
  viscosity: 1.35 ± 0.028 mPa·s
293.16 K, 20000 kPa
  viscosity: 0.9881 ± 0.021 mPa·s
293.16 K, 30000 kPa
  viscosity: 1.156 ± 0.025 mPa·s
303.14 K, 5000 kPa
  viscosity: 0.6463 ± 0.014 mPa·s
303.15 K, 100 kPa
  viscosity: 0.5776 ± 0.013 mPa·s
303.15 K, 10000 kPa
  viscosity: 0.7173 ± 0.016 mPa·s
303.15 K, 20000 kPa
  viscosity: 0.861 ± 0.018 mPa·s
303.15 K, 40000 kPa
  viscosity: 1.177 ± 0.025 mPa·s
303.16 K, 1000 kPa
  viscosity: 0.5906 ± 0.013 mPa·s
303.16 K, 30000 kPa
  viscosity: 1.013 ± 0.022 mPa·s
313.13 K, 1000 kPa
  viscosity: 0.5123 ± 0.012 mPa·s
313.14 K, 5000 kPa
  viscosity: 0.5621 ± 0.013 mPa·s
313.14 K, 20000 kPa
  viscosity: 0.7566 ± 0.017 mPa·s
313.14 K, 30000 kPa
  viscosity: 0.8908 ± 0.019 mPa·s
313.15 K, 100 kPa
  viscosity: 0.5006 ± 0.011 mPa·s
313.15 K, 10000 kPa
  viscosity: 0.6263 ± 0.014 mPa·s
313.15 K, 40000 kPa
  viscosity: 1.033 ± 0.022 mPa·s
323.16 K, 1000 kPa
  viscosity: 0.4465 ± 0.01 mPa·s
323.16 K, 20000 kPa
  viscosity: 0.668 ± 0.015 mPa·s
323.16 K, 30000 kPa
  viscosity: 0.7894 ± 0.017 mPa·s
323.16 K, 40100 kPa
  viscosity: 0.9178 ± 0.02 mPa·s
323.17 K, 5000 kPa
  viscosity: 0.4933 ± 0.011 mPa·s
323.17 K, 10000 kPa
  viscosity: 0.5514 ± 0.012 mPa·s
333.16 K, 1000 kPa
  viscosity: 0.3918 ± 0.0093 mPa·s
333.16 K, 5000 kPa
  viscosity: 0.4349 ± 0.01 mPa·s
333.16 K, 10000 kPa
  viscosity: 0.4891 ± 0.011 mPa·s
333.16 K, 20000 kPa
  viscosity: 0.5966 ± 0.013 mPa·s
333.16 K, 30000 kPa
  viscosity: 0.7059 ± 0.015 mPa·s
333.16 K, 40000 kPa
  viscosity: 0.8211 ± 0.018 mPa·s
343.15 K, 5000 kPa
  viscosity: 0.3849 ± 0.0092 mPa·s
343.15 K, 10000 kPa
  viscosity: 0.4348 ± 0.01 mPa·s
343.15 K, 20000 kPa
  viscosity: 0.5345 ± 0.012 mPa·s
343.15 K, 30000 kPa
  viscosity: 0.6351 ± 0.014 mPa·s
343.15 K, 40000 kPa
  viscosity: 0.7373 ± 0.016 mPa·s
343.16 K, 1000 kPa
  viscosity: 0.342 ± 0.0084 mPa·s
353.15 K, 1000 kPa
  viscosity: 0.3011 ± 0.0077 mPa·s
353.15 K, 30000 kPa
  viscosity: 0.5739 ± 0.013 mPa·s
353.15 K, 40000 kPa
  viscosity: 0.6681 ± 0.015 mPa·s
353.16 K, 5000 kPa
  viscosity: 0.3426 ± 0.0084 mPa·s
353.16 K, 10000 kPa
  viscosity: 0.3892 ± 0.0093 mPa·s
353.16 K, 20000 kPa
  viscosity: 0.4822 ± 0.011 mPa·s
363.15 K, 5000 kPa
  viscosity: 0.3044 ± 0.0077 mPa·s
363.15 K, 10000 kPa
  viscosity: 0.3496 ± 0.0085 mPa·s
363.15 K, 20000 kPa
  viscosity: 0.436 ± 0.01 mPa·s
363.15 K, 30000 kPa
  viscosity: 0.5213 ± 0.012 mPa·s
363.15 K, 40000 kPa
  viscosity: 0.608 ± 0.013 mPa·s
373.15 K, 5000 kPa
  viscosity: 0.2711 ± 0.0071 mPa·s
373.15 K, 10000 kPa
  viscosity: 0.3155 ± 0.0079 mPa·s
373.15 K, 20000 kPa
  viscosity: 0.397 ± 0.0094 mPa·s
373.15 K, 30000 kPa
  viscosity: 0.4778 ± 0.011 mPa·s
373.15 K, 40000 kPa
  viscosity: 0.5583 ± 0.013 mPa·s
